Usually IC50 stands for the point on the concentration scale where inhibition reaches its midpoint.

The subject of data set [1] is abnormal prion proteins in ScN2a cells with persistent infection of scrapie. Description: cells. The data set is classed as cell-based, mouse. The settings on record: for IC50: Mus musculus, ScN2a, 96 h, read-out: Inhibitory effects on producing abnormal prion protein IC50; for Inhibitory effects on producing abnormal prion proteins (in words): ScN2a cells.
For data set [2] the following is noted: Slc:ICR, mouse, not told, iv.
The test system of the next data set is ScN2a cells. The settings on record: for Concentration of inhibiting cell proliferation TC: mouse.
A short description of the next data set: in vivo. The settings on record: male, Crj:CD1, mouse, iv.

Turning to `Cc1nc(/C=C/c2ccc(N(C)C)cc2)oc1C` [BF-137, 2-[2-(4-dimethylamino-phenyl)ethenyl]-4-5-dimethyloxazole], in data set [1], the IC50 amounted to 100 nM. Besides, in data set [2], the “Permeability into the brain: content in Brain” value is recorded as 6.5 % ID/g or ml and the “Permeability into the brain: content in Plasma” value was 2.9 % ID/g or ml. Moreover, the “Concentration of inhibiting cell proliferation TC” value in the data set with ScN2a cells was 100 µM. In addition, the MTD in “in vivo” was at least 10 mg/kg.
The corresponding values for `Nc1ccc(/C=C/c2nc3cc(F)ccc3o2)cc1` [BF-140, 2-(4-amino)styryl-5-fluorobenzoxazole] are 5 nM, 5.5 % ID/g or ml, 1.1 % ID/g or ml, 50 µM and at least 10 mg/kg.
For `CNc1ccc(-c2nc3ccc(O)cc3s2)cc1` [BF-172, 2-(4-methylamino)-phenyl-6-hydroxybenzo thiazole], the IC50 in data set [1] is 1.6 nM. For the same compound, in data set [2], the “Permeability into the brain: content in Brain” value was 4.9 % ID/g or ml and the “Permeability into the brain: content in Plasma” value is on record as 2.9 % ID/g or ml. In addition, the “Concentration of inhibiting cell proliferation TC” value in the data set with ScN2a cells was over 10 µM. In the data set “in vivo”, this compound yielded an MTD of at least 10 mg/kg.
On the same counts, the results for `CNc1ccc(/C=C/c2ccc3ccccc3n2)cc1` [BF-178, 2-[2-(4-methylaminophenyl)ethenyl]quinoline] are 1000 nM, 6.3 % ID/g or ml, 4.5 % ID/g or ml, 100 µM and at least 10 mg/kg.
With `CNc1ccc(/C=C/c2nc3cc(I)ccc3o2)cc1` [BF-180, 2-(4-methylamino)-styryl-5-iodobenzoxazole], the IC50 in data set [1] was found to be 10 nM. In addition, in data set [2], the “Permeability into the brain: content in Brain” value is on record as 2.4 % ID/g or ml and the “Permeability into the brain: content in Plasma” value is listed as 1.2 % ID/g or ml. Further, the “Concentration of inhibiting cell proliferation TC” value with ScN2a cells was 100 µM. This compound showed an MTD in the data set “in vivo” of at least 10 mg/kg.
The corresponding values for `CNc1ccc(/C=C/C=C/c2nc3ccccc3s2)cc1` [BF-187, 2-[[4-(4-methylamino)-phenyl]-1,3-butadienyl]-benzothiazole] are 10 nM, 3.6 % ID/g or ml, 1.3 % ID/g or ml, 10 µM and at least 10 mg/kg.
The corresponding values for `CN(C)c1ccc(/C=C/c2nc3ccccc3s2)c(O)c1` [BF-192, 2-[2-(2-hydroxy-4-dimethylaminophenyl)ethenyl]benzothiazole] are 1.6 nM, 5.5 % ID/g or ml, 2.6 % ID/g or ml, over 10 µM and at least 10 mg/kg.
On the same counts, the results for `CN(C)c1ccc(/C=C/c2ccc3ccccc3n2)c(O)c1` [BF-193, 2-[2-(2-hydroxy-4-dimethylaminophenyl)ethenyl]quinoline] are 1.6 nM, 5.2 % ID/g or ml, 2.7 % ID/g or ml, 10 µM and at least 10 mg/kg.
Take `CNc1ccc(C=Cc2ccc3ccccc3n2)c(CF)c1` [BF-195, 2-[2-(2-fluoromethyl-4-methylaminophenyl)-ethenyl]quinoline]: the IC50 in data set [1] came to 32 nM. Moreover, in data set [2], the “Permeability into the brain: content in Brain” value is reported as 4.8 % ID/g or ml and the “Permeability into the brain: content in Plasma” value is given as 1.2 % ID/g or ml. Besides, the “Concentration of inhibiting cell proliferation TC” value in the data set with ScN2a cells came to 10 µM. This compound also came in with an MTD in “in vivo” of at least 10 mg/kg.
As for `CN(C)c1ncc(/C=C/c2nc3ccccc3o2)s1` [BF-197, 2-[2-(2-dimethyl-aminothiazol-5-yl)-ethenyl]benzoxazole], the IC50 in data set [1] was 16 nM. Moreover, in data set [2], the “Permeability into the brain: content in Brain” value is given as 15 % ID/g or ml and the “Permeability into the brain: content in Plasma” value is on record as 1.9 % ID/g or ml. In the data set on ScN2a cells, the “Concentration of inhibiting cell proliferation TC” value is 10 µM. Further, the MTD in the data set “in vivo” was at least 10 mg/kg.
On the same counts, the results for `CNc1ccc(C=Cc2ccc3ccccc3n2)c(O)c1` [BF-198, 2-[2-(2-hydroxyl-4-methylaminophenyl)-ethenyl]quinoline] are 0.8 nM, 9.9 % ID/g or ml, 4.7 % ID/g or ml, 10 µM and at least 10 mg/kg.
Regarding `Fc1ccc(/C=C/c2nc3ccccc3o2)cc1` [BF-208, 2-[2-(4-fluorophenyl)ethenyl]benzoxazole], the IC50 in data set [1] came to 0.8 nM. Also, in data set [2], the “Permeability into the brain: content in Brain” value was 11.0 % ID/g or ml and the “Permeability into the brain: content in Plasma” value is 0.53 % ID/g or ml. Further, the “Concentration of inhibiting cell proliferation TC” value in the data set on ScN2a cells is over 10 µM. The compound further had an MTD in “in vivo” of at least 10 mg/kg.
The corresponding values for `CN(C)c1ncc(/C=C/c2ccc3ccccc3n2)s1` [BF-222, 2-[2-(2-dimethylthiazol-5-yl)ethenyl]quinoline] are 8 nM, 13.0 % ID/g or ml, 2.0 % ID/g or ml, over 10 µM and at least 10 mg/kg.
As for `Fc1ccc(/C=C/c2nc3ccccc3s2)cc1` [Compound N-453, 2-[2-(4-fluorophenyl)ethenyl]benzothiazole], in data set [1], the IC50 is 1 nM and the “Inhibitory effects on producing abnormal prion proteins (in words)” value was “highly inhibitory effects”. In data set [2], the “Permeability into the brain: content in Brain” value is on record as 5.0 % ID/g or ml and the “Permeability into the brain: content in Plasma” value was 1.4 % ID/g or ml. Moreover, in the data set on ScN2a cells, the “TC and safety concentration margin (in words)” value was “higher TCs, therefore higher safety concentration margins”; the “Concentration of inhibiting cell proliferation TC” value came to 100 µM. The compound further yielded an MTD in “in vivo” of at least 10 mg/kg.
As to `Clc1ccc(/C=C/c2nc3ccccc3[nH]2)cc1` [Compound N-457, 2-[2-(4-chlorophenyl)ethenyl]benzimidazole], in data set [1], the IC50 was 1 nM and the “Inhibitory effects on producing abnormal prion proteins (in words)” value is on record as “highly inhibitory effects”. Also, in data set [2], the “Permeability into the brain: content in Brain” value was 7.1 % ID/g or ml and the “Permeability into the brain: content in Plasma” value was 2.8 % ID/g or ml. In the data set on ScN2a cells, the “TC and safety concentration margin (in words)” value was “higher TCs, therefore higher safety concentration margins”; the “Concentration of inhibiting cell proliferation TC” value was 100 µM. In the data set “in vivo”, this compound showed an MTD of at least 10 mg/kg.
Regarding `C(=C\c1nc2ccccc2[nH]1)/c1ccccc1` [Compound N-491, 2-styrylbenzimidazole], the IC50 in data set [1] is 10 nM. Further, in data set [2], the “Permeability into the brain: content in Brain” value is recorded as 7.4 % ID/g or ml and the “Permeability into the brain: content in Plasma” value is reported as 2.3 % ID/g or ml. The “Concentration of inhibiting cell proliferation TC” value with ScN2a cells stood at 100 µM. The compound further returned an MTD in the data set “in vivo” of at least 10 mg/kg.

The values above are taken from patent publication US20050260126A1 (priority 2002, published 2005).
